Reference: patent US3956279A, “Crystalline pivaloyloxymethyl d(-)-α-aminobenzylpenicillinate” (priority 1973, dated 1976)
Values after ≈ are worked out from the molar mass of the structure shown. Structures can show the parent of a compound that is named as a salt. Where two headings read alike, the source gives them in different places.

How the values were obtained:
[1] = Solubilities at room temperature (about 25°C) in various solvents; format: physicochemical
[2] = Density of crystalline pivampicillin compared with its salts; format: physicochemical; conditions: crystalline pivampicillin versus its salts
[3] = Stability of crystalline pivampicillin and of the preparation of Example 20 (chemical analyses); format: physicochemical; conditions: crystalline pivampicillin in medical preparations
Experimental: Thus the preparation, the formulation of which is described in Example 20 of the present Specification, had according to chemical analyses a stability corresponding to a decrease in activity in the order of 5% over a 2 years period when stored at 20°C and a relative humidity of 40%.

[4] = design: species or system healthy volunteers (adults); conditions: human, in vivo
Experimental: The above preparation was given to five healthy volunteers (adults), and as will appear from Table II below, gave rise to high serum concentrations and a high urinary recovery, as expressed below in terms of serum concentrations and urinary excretion, respectively.
SERUM CONCENTRATIONS (mcg per ml) AND URINARY EXCRETION
(in per cent of dose administered) OF AMPICILLIN IN FIVE
HEALTHY VOLUNTEERS (ADULTS) FOLLOWING ORAL ADMINISTRATION
OF 10 ml OF "PIVAMPICILLIN ORAL SUSPENSION" CONTAINING
PIVAMPICILLIN BASE CORRESPONDING TO 250 mg AMPICILLIN

[5] = chemical substance pivampicillin, under certain conditions; cited from earlier work
[6] = salts of pivampicillin, cited from earlier work

With CC(C)(C)C(=O)OCOC(=O)[C@@H]1N2C(=O)[C@@H](NC(=O)[C@H](N)c3ccccc3)[C@H]2SC1(C)C [pivampicillin, pivaloyloxymethyl D(-)-α-aminobenzylpenicillinate] as the molecule, how does the “Solubility in water (in words)” value ([1]; crystalline pivampicillin) read?
The value was “extremely low solubility in water”.

What about the Stability in methanol ([1]; methanol, room temperature (about 25°C)) of the same molecule?
The Stability in methanol was “destruction”.

What about the solubility ([1]; organic solvent or mixture, acetonitrile, room temperature (about 25°C), read-out: Solubility in acetonitrile) of the same molecule?
Its solubility is 450000 µg/mL (≈ 971 mM).

And the solubility ([1]; organic solvent or mixture, cyclohexane, room temperature (about 25°C), read-out: Solubility in cyclohexane)?
The solubility was 150 µg/mL (≈ 0.324 mM).

And the solubility ([1]; organic solvent or mixture, ethanol, room temperature (about 25°C), read-out: Solubility in ethanol)?
Its solubility is 40000 µg/mL (≈ 86.3 mM).

And the solubility ([1]; organic solvent or mixture, ether, room temperature (about 25°C), read-out: Solubility in ether)?
Its solubility is 10000 µg/mL (≈ 21.6 mM).

And the solubility ([1]; organic solvent or mixture, isopropanol, room temperature (about 25°C), read-out: Solubility in isopropanol)?
The solubility was 12000 µg/mL (≈ 25.9 mM).

And the solubility ([1]; organic solvent or mixture, isopropylether, room temperature (about 25°C), read-out: Solubility in isopropylether)?
The solubility was 1000 µg/mL (≈ 2.16 mM).

And the solubility ([1]; organic solvent or mixture, light petroleum (bp. 60-80°C), room temperature (about 25°C), read-out: Solubility in light petroleum)?
Its solubility is 20 µg/mL (≈ 0.0431 mM).

What about the solubility ([1]; organic solvent or mixture, methanol, room temperature (about 25°C), (destruction), read-out: Solubility in methanol) of the same molecule?
The solubility was > 500000 µg/mL.

What about the solubility ([1]; water, room temperature (about 25°C), read-out: Solubility in water) of the same molecule?
The solubility was 100 µg/mL (≈ 0.216 mM).

What about the Density [2] of the same molecule?
The Density was “higher density than its salts”.

And the “Stability (in words)” value [3]?
Its value is “stable compound”.

And the “Absorption (in words)” value [4]?
Its value is “excellent absorption”.

What about the Tendency to polymerize [5] of the same molecule?
The Tendency to polymerize was “apt to polymerize”.

Which “Solubility of salt in water (in words)” value ([6]; hydrochloride) does the source give for CC(C)(C)C(=O)OCOC(=O)[C@@H]1N2C(=O)[C@@H](NC(=O)[C@H](N)c3ccccc3)[C@H]2SC1(C)C [hydrochloride, pivaloyloxymethyl D(-)-α-aminobenzylpenicillinate, hydrochloride] here?
The value was “readily soluble in water”.

Which “Solubility of salt in water (in words)” value [6] does the source give for CC(C)(C)C(=O)OCOC(=O)[C@@H]1N2C(=O)[C@@H](NC(=O)[C@H](N)c3ccccc3)[C@H]2SC1(C)C here?
The value was “slightly soluble in water”.
